Among the data in US7863280B2, “Substituted 2-pyridone derivatives, method for their preparation and their use as medicament” (Sanofi-Aventis Deutschland GmbH, priority 2004, dated 2011) are IC50 values, retold here.

The target of this experiment is recombinantly expressed human PARP-1 enzyme (Homo sapiens, UniProt P09874). Briefly: PARP enzyme assay. Particulars: DNA-activated PARP-1, 200 μM NAD, tritium-labeled NAD incorporation, pH=8.0, room temperature, 1 hour. It counts as biochemical. How it is done: Pharmacological Investigations PARP Enzyme Assay
recombinantly expressed human PARP-1 enzyme, sequence (P09874 whole entry): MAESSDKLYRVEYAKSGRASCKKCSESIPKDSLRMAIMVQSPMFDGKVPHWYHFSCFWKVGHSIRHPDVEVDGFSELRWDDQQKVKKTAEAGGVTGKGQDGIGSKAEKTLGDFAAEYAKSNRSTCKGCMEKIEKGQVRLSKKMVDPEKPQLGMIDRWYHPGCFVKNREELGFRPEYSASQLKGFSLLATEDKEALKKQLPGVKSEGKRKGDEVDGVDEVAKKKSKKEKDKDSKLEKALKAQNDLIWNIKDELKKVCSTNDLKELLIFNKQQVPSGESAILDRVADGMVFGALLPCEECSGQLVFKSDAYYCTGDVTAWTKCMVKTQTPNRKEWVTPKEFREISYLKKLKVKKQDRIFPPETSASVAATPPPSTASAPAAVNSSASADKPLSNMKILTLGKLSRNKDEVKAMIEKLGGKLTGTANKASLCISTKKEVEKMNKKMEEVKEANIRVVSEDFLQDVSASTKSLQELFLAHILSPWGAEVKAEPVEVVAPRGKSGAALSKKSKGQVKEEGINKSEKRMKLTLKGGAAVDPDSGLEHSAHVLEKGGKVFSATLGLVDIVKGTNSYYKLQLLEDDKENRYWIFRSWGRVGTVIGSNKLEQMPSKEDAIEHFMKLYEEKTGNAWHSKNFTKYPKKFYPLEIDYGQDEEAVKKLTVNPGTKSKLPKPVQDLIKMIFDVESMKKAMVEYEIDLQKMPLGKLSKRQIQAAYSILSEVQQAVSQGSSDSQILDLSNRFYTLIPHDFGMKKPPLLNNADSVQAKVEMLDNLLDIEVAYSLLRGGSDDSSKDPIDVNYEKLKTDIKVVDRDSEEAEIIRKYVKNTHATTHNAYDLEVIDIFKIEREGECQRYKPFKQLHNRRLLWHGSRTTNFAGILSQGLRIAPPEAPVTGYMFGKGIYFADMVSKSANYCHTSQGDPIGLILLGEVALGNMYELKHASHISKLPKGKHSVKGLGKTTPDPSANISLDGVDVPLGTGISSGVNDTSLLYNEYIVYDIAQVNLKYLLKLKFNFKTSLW
The half-maximum inhibitor concentration is determined by incubating the substances to be tested with the DNA-activated, recombinantly expressed and purified PARP-1 enzyme. Specifically, various concentrations of the test substance are incubated in 50 μl of reaction solution, which contains 50 mM Tris, 5 mM MgCl2, 1 mM DTT, 200 μM NAD, 0.1 mCi/ml tritium-labeled NAD, 0.1 mg/ml DNA, 0.1 mg/ml histones, 2 μg/ml recombinantly expressed human PARP-1 enzyme, pH=8.0, at room temperature for 1 hour. The reaction is stopped by adding 150 μl of 20% trichloroacetic acid, and the radiolabelled protein constituents are precipitated. After incubation on ice for 10 minutes, the labeled, insoluble constituents are separated off through a glass fiber filter and, after washing with 20% trichloroacetic acid three times, the radioactivity incorporated by the PARP-1 enzyme is measured by radioluminescence. Consideration of the incorporation rates determined in this way as a function of the concentration of the test substance results in the half-maximum inhibitor concentration (IC50) as the concentration of the test substance which reduces the incorporation rate to half the maximum value attainable (incubation without inhibitor).
In the case of `CCc1cc(Nc2cccc(C#N)c2)c(C)[nH]c1=O` [Example 1, 3-(5-ethyl-2-methyl-6-oxo-1,6-dihydropyridin-3-ylamino)benzonitrile], the IC50 amounted to 9 µM. Regarding `CCc1cc(Nc2cccc(C(N)=O)c2)c(C)[nH]c1=O` [Example 2, 3-(5-ethyl-2-methyl-6-oxo-1,6-dihydropyridin-3-ylamino)benzamide], the IC50 was determined as 2.2 µM. Turning to `CCc1cc(Nc2cccc(C(C)=O)c2)c(C)[nH]c1=O` [Example 3, 5-(3-acetylphenylamino)-3-ethyl-6-methyl-1H-pyridin-2-one], the IC50 is 1.3 µM.

Consider `CCc1cc(Nc2cccc(NC(C)=O)c2)c(C)[nH]c1=O` [Example 4, N-[3-(5-ethyl-2-methyl-6-oxo-1,6-dihydropyridin-3-ylamino)phenyl]acetamide], for which the IC50 was 0.8 µM. Then `CCc1cc(Nc2ccc(S(N)(=O)=O)cc2)c(C)[nH]c1=O` [Example 6, 4-(5-ethyl-2-methyl-6-oxo-1,6-dihydropyridin-3-ylamino)benzenesulfonamide], with 9.8 µM; and `CCc1cc(Nc2ccc(Oc3cccnc3)cc2)c(C)[nH]c1=O` [Example 7, 3-ethyl-6-methyl-5-[4-(pyridin-3-yloxy)phenylamino]-1H-pyridin-2-one], with 4.7 µM.

Turning to `CCc1cc(Nc2ccc3c(c2)N(C(C)=O)CC3)c(C)[nH]c1=O` [Example 9, 5-(1-acetyl-2,3-dihydro-1H-indol-6-ylamino)-3-ethyl-6-methyl-1H-pyridin-2-one], the IC50 was determined as 3.4 µM. For `CCc1cc(Nc2ccc(S(=O)(=O)Nc3ccccn3)cc2)c(C)[nH]c1=O` [Example 10, 4-(5-ethyl-2-methyl-6-oxo-1,6-dihydropyridin-3-ylamino)-N-pyridin-2-yl-benzenesulfonamide], the IC50 stood at 6.2 µM. As to `CCc1cc(Nc2ccc(NC(C)=O)cn2)c(C)[nH]c1=O` [Example 12, N-[6-(5-ethyl-2-methyl-6-oxo-1,6-dihydropyridin-3-ylamino)pyridin-3-yl]-acetamide], the IC50 is 1.1 µM. Consider `CCc1cc(Nc2ccc(C#N)cn2)c(C)[nH]c1=O` [Example 13, 6-(5-ethyl-2-methyl-6-oxo-1,6-dihydropyridin-3-ylamino)nicotinonitrile], for which the IC50 amounted to 3.9 µM. Regarding `CCc1cc(Nc2ccncc2)c(C)[nH]c1=O` [Example 15, 3-ethyl-6-methyl-5-(pyridin-4-ylamino)-1H-pyridin-2-one], the half-maximal inhibitory concentration (IC50) was 9.5 µM. In the case of `CCc1cc(Nc2ccc(C(C)=O)cc2)c(C)[nH]c1=O` [Example 18, 5-(4-acetylphenylamino)-3-ethyl-6-methyl-1H-pyridin-2-one] it was 4.4 µM; in that of `CCc1cc(Nc2cccnc2)c(C)[nH]c1=O` [Example 19, 3-ethyl-6-methyl-5-(pyridin-3-ylamino)-1H-pyridin-2-one], 9.2 µM. In the case of `CCc1cc(Oc2cccc(OC)c2)c(C)[nH]c1=O` [Example 20, 3-ethyl-5-(3-methoxyphenoxy)-6-methyl-1H-pyridin-2-one], the IC50 came out at 4.8 µM. Regarding `CCc1cc(Nc2cccc(CO)c2)c(C)[nH]c1=O` [Example 23, 3-ethyl-5-(3-hydroxymethylphenylamino)-6-methyl-1H-pyridin-2-one], the IC50 was 9.8 µM.

With `CCc1cc(Nc2cccc(S(C)(=O)=O)c2)c(C)[nH]c1=O` [Example 24, 3-ethyl-5-(3-methanesulfonylphenylamino)-6-methyl-1H-pyridin-2-one], the IC50 amounted to 6.1 µM.
